Source: patent publication US20240279278A1, “NMU RECEPTOR 2 AGONISTS” (Boehringer Ingelheim International GmbH, priority 2023, published 2024)
Residues, ends and D or L forms follow the SMILES beside them.

Tests used:
Assay type in all cases: cell-based
human NMUR2 receptor [1] = target: T1, human NMUR2 receptor (Homo sapiens, UniProt Q9GZQ4); assay: IP1 Gq HTRF assay, activation of human NMUR2 in buffer; design: expressed in transfected cells; host or cells: CHO-K1; settings: CHO-K1 cells expressing human NMUR2, stimulation buffer with 0.1% BSA; read-out: EC50 (hNMUR2) buffer
T1 sequence (Q9GZQ4 whole entry): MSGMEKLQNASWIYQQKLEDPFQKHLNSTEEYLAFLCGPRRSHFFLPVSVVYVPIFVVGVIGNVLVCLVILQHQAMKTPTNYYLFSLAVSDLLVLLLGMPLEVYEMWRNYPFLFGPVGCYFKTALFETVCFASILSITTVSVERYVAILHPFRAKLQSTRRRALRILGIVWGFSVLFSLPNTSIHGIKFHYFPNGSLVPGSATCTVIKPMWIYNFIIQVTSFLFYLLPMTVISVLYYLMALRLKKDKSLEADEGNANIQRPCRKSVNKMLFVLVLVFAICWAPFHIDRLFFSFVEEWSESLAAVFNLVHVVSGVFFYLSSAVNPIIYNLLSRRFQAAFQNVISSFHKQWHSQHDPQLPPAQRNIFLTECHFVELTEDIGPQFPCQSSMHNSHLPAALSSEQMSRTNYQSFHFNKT
Outline: (§1)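 IP-One HTRF competition (665/620 nm ratio) read after 1 h agonist exposure at 37 °C in pH 7.4 HEPES/HBSS stimulation buffer containing 50 mM LiCl, 0.1% BSA, 1% DMSO. Cells: CHO-K1 stably expressing human NMUR2 or NMUR1. EC50 by 4-parameter nonlinear regression of 8-point curves.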

human NMUR1 receptor = target: T2, human NMUR1 receptor (Homo sapiens, UniProt Q9HB89); assay: IP1 Gq HTRF assay, activation of human NMUR1 in buffer; settings: CHO-K1 cells expressing human NMUR1, stimulation buffer with 0.1% BSA; read-out: EC50 (hNMUR1) buffer
T2 construct: expressed in transfected cells; host or cells: CHO-K1
T2 sequence (Q9HB89 1-426): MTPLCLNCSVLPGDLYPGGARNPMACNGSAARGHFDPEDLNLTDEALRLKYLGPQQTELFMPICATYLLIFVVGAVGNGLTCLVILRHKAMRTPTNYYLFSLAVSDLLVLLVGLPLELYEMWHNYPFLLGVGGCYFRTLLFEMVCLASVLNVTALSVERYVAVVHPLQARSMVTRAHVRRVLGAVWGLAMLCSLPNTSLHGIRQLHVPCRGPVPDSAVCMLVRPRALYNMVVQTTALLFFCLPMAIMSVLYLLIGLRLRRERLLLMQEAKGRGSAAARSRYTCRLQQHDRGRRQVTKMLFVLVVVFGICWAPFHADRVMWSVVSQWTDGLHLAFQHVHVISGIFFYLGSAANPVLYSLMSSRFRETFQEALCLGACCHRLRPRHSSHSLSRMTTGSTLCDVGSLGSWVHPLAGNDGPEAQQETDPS
Outline: as §1

human NMUR2 receptor [2] = target: T1, human NMUR2 receptor; assay: IP1 Gq HTRF assay, activation of human NMUR2 in human plasma; design: expressed in transfected cells; host or cells: CHO-K1; settings: CHO-K1 cells expressing human NMUR2, 100% human plasma; read-out: EC50 (hNMUR2) human plasma
Outline: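 EC50 obtained via 4-parameter sigmoidal regression of HTRF IP-One signal (665 nm/620 nm), which falls as intracellular IP1 rises. Stimulation: 1 h, 37° C, peptides in human plasma plus 50 mM LiCl, 1% DMSO final, on NMUR2-expressing CHO-K1 cells, 8 concentrations.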

Compound: CCCC[C@H](NC(=O)[C@H](CC(C)C)N(C)C(=O)[C@H](Cc1ccccc1)NC(=O)[C@H](Cc1ccc(O)cc1)NC(=O)CN1CCN(CCNC(=O)CN(C)C(=O)CN(C)C(=O)CN(C)C(=O)CN(C)C(=O)CN(C)C(=O)CN(C)C(=O)CN(C)C(=O)CN(C)C(=O)CN(C)C(=O)CN(C)C(=O)CN(C)C(=O)CN(C)C(=O)CC[C@H](NC(=O)CC[C@H](NC(=O)CC[C@H](NC(=O)CCCCCCCCCCCCCCCCC(=O)O)C(=O)O)C(=O)O)C(=O)O)CC1)C(=O)N(C)[C@@H](CCCNC(=N)N)C(=O)N1CCC[C@H]1C(=O)N[C@@H](CCCNC(=N)N)C(=O)NCC(N)=O [Compound 35, C18DA-gGlu3-Sar12-AEPipAc-Tyr-Phe-NMeLeu-Nle-NMeArg-Pro-Arg-Gly-NH2]
- EC50 (human NMUR2 receptor [1]): 1.5 nM
- EC50 (human NMUR1 receptor): 190 nM
- EC50 (human NMUR2 receptor [2]): 9.4 nM

Compound: CCCC[C@H](NC(=O)[C@H](CC(C)C)N(C)C(=O)[C@H](Cc1ccccc1)NC(=O)[C@H](Cc1ccc(O)cc1)NC(=O)CN1CCN(CCNC(=O)CN(C)C(=O)CN(C)C(=O)CN(C)C(=O)CN(C)C(=O)CN(C)C(=O)CN(C)C(=O)CN(C)C(=O)CN(C)C(=O)CN(C)C(=O)CN(C)C(=O)CN(C)C(=O)CN(C)C(=O)CN(C)C(=O)CN(C)C(=O)CN(C)C(=O)CC[C@H](NC(=O)CC[C@H](NC(=O)CC[C@H](NC(=O)CCCCCCCCCCCCCCCCCCC(=O)O)C(=O)O)C(=O)O)C(=O)O)CC1)C(=O)N(C)[C@@H](CCCNC(=N)N)C(=O)N(C)[C@@H](C)C(=O)N[C@@H](CCCNC(=N)N)C(=O)NCC(N)=O [Compound 36, C20DA-gGlu3-Sar15-AEPipAc-Tyr-Phe-NMeLeu-Nle-NMeArg-NMeAla-Arg-Gly-NH2] (HELM PEPTIDE1{[O=C(O)CCCCCCCCCCCCCCCCCCC(=O)[*:2]].[gGlu].[gGlu].[gGlu].[Sar].[Sar].[Sar].[Sar].[Sar].[Sar].[Sar].[Sar].[Sar].[Sar].[Sar].[Sar].[Sar].[Sar].[Sar].[O=C(CN1CCN(CCN[*:1])CC1)[*:2]].Y.F.[meL].[Nle].[meR].[meA].R.G.[am]}$$$$V2.0)
- EC50 (human NMUR2 receptor [1]): 4.7 nM
- EC50 (human NMUR1 receptor): 1400 nM
- EC50 (human NMUR2 receptor [2]): 18.3 nM

Compound: CCCC[C@H](NC(=O)[C@H](CC(C)C)N(C)C(=O)[C@H](Cc1ccccc1)NC(=O)[C@H](Cc1ccc(O)cc1)NC(=O)CN1CCN(CCNC(=O)CN(C)C(=O)CN(C)C(=O)CN(C)C(=O)CN(C)C(=O)CN(C)C(=O)CN(C)C(=O)CN(C)C(=O)CN(C)C(=O)CN(C)C(=O)CN(C)C(=O)CN(C)C(=O)CN(C)C(=O)CC[C@H](NC(=O)CC[C@H](NC(=O)CC[C@H](NC(=O)CCCCCCCCCCCCCCCCC(=O)O)C(=O)O)C(=O)O)C(=O)O)CC1)C(=O)N(C)[C@@H](CCCNC(=N)N)C(=O)N(C)[C@@H](C)C(=O)N[C@@H](CCCNC(=N)N)C(=O)NCC(N)=O [Compound 37, C18DA-gGlu3-Sar12-AEPipAc-Tyr-Phe-NMeLeu-Nle-NMeArg-NMeAla-Arg-Gly-NH2]
- EC50 (human NMUR2 receptor [1]): 3.5 nM
- EC50 (human NMUR1 receptor): 1300 nM
- EC50 (human NMUR2 receptor [2]): 27.1 nM

Compound: CCCC[C@H](NC(=O)[C@H](CC(C)C)N(C)C(=O)[C@H](Cc1ccccc1)NC(=O)[C@H](Cc1ccc(O)cc1)NC(=O)CN1CCN(CCNC(=O)CN(C)C(=O)CN(C)C(=O)CN(C)C(=O)CN(C)C(=O)CN(C)C(=O)CN(C)C(=O)CN(C)C(=O)CN(C)C(=O)CN(C)C(=O)CN(C)C(=O)CN(C)C(=O)CN(C)C(=O)CC[C@H](NC(=O)CC[C@H](NC(=O)CC[C@H](NC(=O)CC[C@H](NC(=O)CCCCCCCCCCCCCCCCCCC(=O)O)C(=O)O)C(=O)O)C(=O)O)C(=O)O)CC1)C(=O)N[C@@H](CCCNC(=N)N)C(=O)N1CCC[C@H]1C(=O)N[C@@H](CCCNC(=N)N)C(=O)NCC(N)=O [Compound 39, C20DA-gGlu4-Sar12-AEPipAc-Tyr-Phe-NMeLeu-Nle-Arg-Pro-Arg-Gly-NH2]
- EC50 (human NMUR2 receptor [1]): 2.5 nM
- EC50 (human NMUR1 receptor): 190 nM
- EC50 (human NMUR2 receptor [2]): 10.4 nM
